From ChEMBL document CHEMBL1201862, “PubChem BioAssay data set” (2004) come the findings set out here.

Some test systems named below: HOP-62; HL-60; U-251; SW-620; K562; A549; SN12C; COLO 205; SF-539; SF-268; OVCAR-5; CCRF-CEM; RXF 393; HCT-15; HOP-92; RPMI-8226; M14; KM12; NCI-H522; SF-295.
Experiment in all cases: NCI-60 cell line screen, 48 h

Molecules are shown by their SMILES.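 48-hour exposure; five concentrations; linearly interpolated endpoints. The concentration for 50% growth inhibition is given as GI50.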 Active and inactive are the calls of the source. No stated cut-off is given here; in the data, active = GI50 up to about 1.1 µM and inactive = higher.

As for `N#Cc1c(N)sc2c1-c1ccccc1OC2`, the GI50 is 46.3 µM (inactive) in the assay with HOP-62; 16.4 µM (inactive) with HL-60; 45.1 µM (inactive) with U-251; 35.5 µM (inactive) in the assay on SW-620; 34.2 µM (inactive) in the assay with K562; 32.4 µM (inactive) in the assay on A549. Also, the GI50 was 19.7 µM (inactive) in the assay with SN12C; 42.8 µM (inactive) in the assay on COLO 205; 46.6 µM (inactive) with SF-539; 37.1 µM (inactive) with SF-268; 31.6 µM (inactive) in the assay on OVCAR-5; 12.4 µM (inactive) in the assay on CCRF-CEM. In addition, the GI50 was 16 µM (inactive) with RXF 393; 26.7 µM in the assay with HCT-15; 44 µM (inactive) in the assay with HOP-92; 33.6 µM (inactive) in the assay with RPMI-8226; 56.5 µM (inactive) in the assay with M14; 38.2 µM (inactive) in the assay with KM12.

Regarding `Oc1cc(Cl)cc2cccnc12`, the GI50 in the assay on NCI-H522 is 0.348 µM (active); in the assay with HOP-62 it was > 35 µM (inactive); with HL-60, 0.229 µM (active); in the assay with U-251, 0.971 µM (active); with SW-620 it was 1.65 µM (inactive); with K562, 0.396 µM (active). The GI50 in the assay on A549 is 0.998 µM (active); with SN12C, 1.7 µM (inactive); with COLO 205 it was 6.65 µM (inactive); with SF-268, 0.296 µM (active); with OVCAR-5 it was 4.85 µM (inactive); in the assay with SF-295 it was 0.288 µM (active). Besides, the GI50 in the assay on CCRF-CEM is 0.288 µM (active); in the assay with RXF 393 it was 3.02 µM (inactive); with HCT-15 it was 0.552 µM; with HOP-92 it was 3.25 µM (inactive); in the assay with RPMI-8226, 0.601 µM (active); in the assay on M14 it was 10.5 µM (inactive). In addition, the GI50 in the assay with KM12 is 4.78 µM (inactive).

Take `CN1CCN(c2ccc3c(c2)NCC(=O)N3)CC1`: the GI50 with NCI-H522, in the assay with HOP-62, with HL-60, in the assay with U-251, in the assay with SW-620 and in the assay with K562 was > 100 µM (inactive) each time. Besides, the GI50 in the assay on A549, in the assay with COLO 205, in the assay on SF-268, in the assay on OVCAR-5, in the assay with SF-295 and with CCRF-CEM was > 100 µM (inactive) in each case. For the same compound, the GI50 in the assay on RXF 393 was > 100 µM (inactive); with HCT-15, > 100 µM; with HOP-92 it was > 100 µM (inactive); with RPMI-8226 it was > 100 µM (inactive); in the assay with M14 it was > 100 µM (inactive); in the assay on KM12 it was > 100 µM (inactive).

Regarding `CCOC(=O)C(C(=O)OCC)P(=S)(S)c1ccccc1` (stereo not drawn), the GI50 in the assay with NCI-H522, with HOP-62, in the assay with HL-60, in the assay on U-251, in the assay on SW-620 and in the assay on K562 was > 100 µM (inactive) each time. Further, the GI50 with A549, in the assay on SN12C, with COLO 205, in the assay on SF-539, in the assay with SF-268 and in the assay on OVCAR-5 was > 100 µM (inactive) in each case. For the same compound, the GI50 in the assay with SF-295, in the assay on CCRF-CEM, in the assay on RXF 393, with HOP-92 and in the assay on KM12 was > 100 µM (inactive) throughout.

For `NS(=O)(=O)c1ccc(-n2c(-c3cccs3)nc3ccc(I)cc3c2=O)cc1`, the GI50 is 19.7 µM (inactive) in the assay with NCI-H522; 30.4 µM (inactive) with HOP-62; 20.6 µM (inactive) in the assay with HL-60; 20 µM (inactive) with U-251; 37.9 µM (inactive) in the assay with SW-620; 18.7 µM (inactive) in the assay with A549. Moreover, the GI50 with SN12C is 30.3 µM (inactive); with COLO 205 it was 19.7 µM (inactive); in the assay on SF-268 it was 28.2 µM (inactive); in the assay on OVCAR-5, 24.6 µM (inactive); in the assay on SF-295, 25.4 µM (inactive); in the assay on RXF 393, 28.2 µM (inactive). Moreover, the GI50 in the assay with HCT-15 is 20.9 µM; in the assay on HOP-92, 18.5 µM (inactive); in the assay with M14 it was 23.7 µM (inactive); in the assay on KM12 it was 24.1 µM (inactive).
